In publication PMC5863483, “Low HLA binding of diabetes-associated CD8+ T-cell epitopes is increased by post translational modifications” (BMC Immunology, 2018):
Read-outs that look alike come from different tables or passages of the source. Values belong to the compound of their own block, whether it stands above or below them. *1 amine or outer side, *2 acyl side, *3 side chain or, on linkers, in order; H or OH if unused. Where a SMILES comes first, the peptide text is derived from it. Where no end group is shown, it is not given here. [ ]: non-standard residue; d: D form. γGlu = O=C(O)[C@H](CCC(=O)[*:2])N[*:1]; βAsp = O=C(O)[C@H](CC(=O)[*:2])N[*:1]; Cya = N[C@@H](CS(=O)(=O)O)C(=O)O; Cit = NC(=O)NCCC[C@H](N)C(=O)O

Molecular target: HLA-A*02:01 (Homo sapiens, UniProt P04439, D140Y/D185E/D98H/E176V/E277Q/G131W/G231S/I119V/I121R/I166T/I218V/L300P/L318F/N151K/N90K/P208A/P217A/Q86G/Q94H/R138H/R169H/T345S)
Assay: HLA-peptide competition binding assay, A*02:01
[1] = read-out: A*02:01 binding (IC50 nM) Modified
[2] = read-out: IC50 nM, target assay A*02:01
[3] = post-translationally modified insulin peptide, competition binding assay, a dash indicates IC50 >40,000 nM, read-out: A*02:01 binding (IC50 nM) Modified
[4] = read-out: A*02:01 binding (IC50 nM) WT
[5] = post-translationally modified insulin-derived peptide, radiolabeled ligand competition, purified MHC, two-day incubation, three or more independent experiments, read-out: A*02:01 binding, Modified
[6] = unmodified (WT) insulin peptide, competition binding assay, a dash indicates IC50 >40,000 nM, read-out: A*02:01 binding (IC50 nM) WT

Compound: KMYAFTLES [reference compound]
IC50 [2]: 880 nM

Compound: FMTSSWWGA [reference compound]
IC50 [2]: 378 nM

Compound: SLTAISTTL [reference compound]
IC50 [2]: 242 nM

Compound: CC(C)C[C@H](NC(=O)[C@H](CC(=O)O)NC(=O)[C@H](CCC(=O)O)NC(=O)[C@H](C)NC(=O)[C@H](CCC(=O)O)NC(=O)[C@@H](N)CCCNC(N)=O)C(=O)N[C@@H](CCC(N)=O)C(=O)N[C@H](C(=O)NCC(=O)N[C@@H](CCC(N)=O)C(=O)O)C(C)C (H-[Cit]EAEDLQVGQ-OH; N-terminus and C-terminus assumed)
IC50 [3]: > 40000 nM

Compound: ILDKKVEKV [reference compound]
IC50 [2]: 11200 nM

Compound: VLHELFGMDI [reference compound]
IC50 [2]: 287 nM

Compound: CC(C)C[C@H](NC(=O)[C@H](C)NC(=O)[C@H](CC(C)C)NC(=O)[C@H](CC(C)C)NC(=O)[C@@H]1CCCN1C(=O)[C@H](CC(C)C)NC(=O)[C@H](CC(C)C)NC(=O)[C@@H](N)CCCNC(N)=O)C(=O)N[C@@H](CC(C)C)C(=O)N[C@@H](C)C(=O)O (H-[Cit]LLPLLALLA-OH)
IC50 [1]: 70 nM

Compound: EHLCGSHLVE
IC50 [3]: > 40000 nM

Compound: REAEDLQVGQ
IC50 [4]: 23700 nM

Compound: CC(C)C[C@H](NC(=O)[C@H](C)NC(=O)[C@@H](N)CC(C)C)C(=O)N[C@@H](CCC(=O)O)C(=O)NCC(=O)N[C@@H](CO)C(=O)N[C@@H](CC(C)C)C(=O)N[C@@H](CCC(N)=O)C(=O)N[C@@H](CCCCN)C(=O)N[C@@H](CCCNC(N)=O)C(=O)O (H-LALEGSLQK[Cit]-OH)
IC50 [5]: 16400 nM

Compound: GSHLVEALYL
IC50 [4]: 1770 nM

Compound: LLDVAPLSL [reference compound]
IC50 [2]: 51 nM

Compound: FVDEHLCGSH
IC50 [3]: > 40000 nM

Compound: DEHLCGSHL
IC50 [3]: > 40000 nM

Compound: LLQVHHSCPL [reference compound]
IC50: 3090 nM

Compound: ALEGSLQKR
IC50 [6]: > 40000 nM

Compound: LQKRGIVEQ
IC50 [6]: > 40000 nM

Compound: GERGFFYTP
IC50 [6]: > 40000 nM

Compound: VDEHLCGSH
IC50 [3]: > 40000 nM

Compound: CC(C)C[C@H](NC(=O)[C@H](Cc1c[nH]cn1)NC(=O)[C@H](CCC(N)=O)NC(=O)[C@@H](N)CC(N)=O)C(=O)N[C@@H](CS(=O)(=O)O)C(=O)NCC(=O)N[C@@H](CO)C(=O)N[C@@H](Cc1c[nH]cn1)C(=O)N[C@@H](CC(C)C)C(=O)N[C@H](C(=O)O)C(C)C [NQHLBGSHLV] (H-NQHL[Cya]GSHLV-OH; N-terminus and C-terminus assumed)
IC50 [3]: > 40000 nM

Compound: CSCC[C@H](NC(=O)[C@H](Cc1c[nH]c2ccccc12)NC(=O)[C@H](CC(C)C)NC(=O)[C@H](C)N)C(=O)N[C@@H](CCCNC(N)=O)C(=O)N[C@@H](CC(C)C)C(=O)N[C@@H](CC(C)C)C(=O)N1CCC[C@H]1C(=O)N[C@@H](CC(C)C)C(=O)N[C@@H](CC(C)C)C(=O)O (H-ALWM[Cit]LLPLL-OH)
IC50 [5]: 69 nM

Compound: TMHSLTIQM [reference compound]
IC50 [2]: 104 nM

Compound: CC(C)C[C@H](NC(=O)[C@H](Cc1c[nH]cn1)NC(=O)[C@H](CO)NC(=O)CNC(=O)[C@H](CS(=O)(=O)O)NC(=O)[C@H](CC(C)C)NC(=O)[C@H](Cc1c[nH]cn1)NC(=O)[C@H](CCC(N)=O)NC(=O)[C@@H](N)CC(N)=O)C(=O)O [NQHLBGSHL] (H-NQHL[Cya]GSHL-OH; N-terminus and C-terminus assumed)
IC50 [3]: > 40000 nM

Compound: ILMHCQTTL [reference compound]
IC50 [2]: 478 nM

Compound: CC(C)C[C@H](NC(=O)[C@H](Cc1c[nH]cn1)NC(=O)[C@H](CCC(N)=O)NC(=O)[C@H](CC(N)=O)NC(=O)[C@@H](NC(=O)[C@@H](N)Cc1ccccc1)C(C)C)C(=O)N[C@@H](CS(=O)(=O)O)C(=O)NCC(=O)N[C@@H](CO)C(=O)N[C@@H](Cc1c[nH]cn1)C(=O)O [FVNQHLBGSH] (H-FVNQHL[Cya]GSH-OH; N-terminus and C-terminus assumed)
IC50 [3]: > 40000 nM

Compound: LIFDLGGGT [reference compound]
IC50 [2]: 5420 nM

Compound: GVFIQVYEV [reference compound]
IC50 [2]: 460 nM

Compound: CC(C)C[C@H](NC(=O)[C@H](Cc1c[nH]cn1)NC(=O)[C@H](CO)NC(=O)CNC(=O)[C@H](CS(=O)(=O)O)NC(=O)[C@@H](N)CC(C)C)C(=O)N[C@H](C(=O)N[C@@H](CCC(=O)O)C(=O)N[C@@H](C)C(=O)O)C(C)C [LBGSHLVEA] (H-L[Cya]GSHLVEA-OH)
IC50 [1]: 14800 nM

Compound: CGERGYFYTP
IC50 [3]: > 40000 nM

Compound: CSCC[C@H](NC(=O)[C@H](Cc1c[nH]c2ccccc12)NC(=O)[C@H](CC(C)C)NC(=O)[C@H](C)N)C(=O)N[C@@H](CCCNC(N)=O)C(=O)N[C@@H](CC(C)C)C(=O)N[C@@H](CC(C)C)C(=O)N1CCC[C@H]1C(=O)N[C@@H](CC(C)C)C(=O)O (H-ALWM[Cit]LLPL-OH)
IC50 [5]: 28 nM

Compound: LLSILCIWV [reference compound]
IC50: 734 nM

Compound: WMRLLPLLA
IC50: 1530 nM

Compound: GERGYFYTP
IC50 [3]: > 40000 nM

Compound: CC(C)C[C@H](NC(=O)[C@H](CC(=O)O)NC(=O)[C@H](CCC(=O)O)NC(=O)[C@H](C)NC(=O)[C@H](CCC(=O)O)NC(=O)[C@H](CCCNC(N)=O)NC(=O)[C@@H](N)CCCNC(N)=O)C(=O)N[C@@H](CCC(N)=O)C(=O)N[C@H](C(=O)NCC(=O)O)C(C)C (H-[Cit][Cit]EAEDLQVG-OH; N-terminus and C-terminus assumed)
IC50 [3]: > 40000 nM

Compound: MALWMRLLPL
IC50: 1260 nM

Compound: CC(C)C[C@H](NC(=O)[C@H](Cc1c[nH]cn1)NC(=O)CC[C@H](NC(=O)C[C@H](NC(=O)[C@@H](N)C(C)C)C(=O)O)C(=O)O)C(=O)N[C@@H](CS)C(=O)NCC(=O)N[C@@H](CO)C(=O)N[C@@H](Cc1c[nH]cn1)C(=O)O [VOZHLCGSH] (H-V[βAsp][γGlu]HLCGSH-OH; N-terminus and C-terminus assumed)
IC50 [3]: > 40000 nM

Compound: FVNQHLCGS
IC50 [6]: > 40000 nM

Compound: CC(C)[C@H](N)C(=O)N[C@@H](CS)C(=O)NCC(=O)N[C@@H](CCC(=O)O)C(=O)N[C@@H](CCCNC(N)=O)C(=O)NCC(=O)N[C@@H](Cc1ccccc1)C(=O)N[C@@H](Cc1ccccc1)C(=O)N[C@@H](Cc1ccc(O)cc1)C(=O)N[C@H](C(=O)O)[C@@H](C)O (H-VCGE[Cit]GFFYT-OH; N-terminus and C-terminus assumed)
IC50 [3]: > 40000 nM

Compound: CC(C)[C@H](N)C(=O)N[C@@H](CS)C(=O)NCC(=O)N[C@@H](CCC(=O)O)C(=O)N[C@@H](CCCNC(N)=O)C(=O)NCC(=O)N[C@@H](Cc1ccccc1)C(=O)N[C@@H](Cc1ccccc1)C(=O)N[C@@H](Cc1ccc(O)cc1)C(=O)O (H-VCGE[Cit]GFFY-OH)
IC50 [1]: 33500 nM

Compound: FMTSSWWRA [reference compound]
IC50 [2]: 101 nM

Compound: FYTPKTRREA
IC50 [6]: > 40000 nM

Compound: SMPQGTFPV [reference compound]
IC50 [2]: 631 nM

More lines, now with the values ahead:

IC50 [1]: 10800 nM
Compound: YLVCGERGY

IC50 [2]: 26 nM
Compound: FLWSVFMLI [reference compound]

IC50 [3]: > 40000 nM
Compound: CC(C)C[C@H](NC(=O)[C@H](CC(=O)O)NC(=O)[C@H](CCC(=O)O)NC(=O)[C@H](C)NC(=O)[C@H](CCC(=O)O)NC(=O)[C@H](CCCNC(N)=O)NC(=O)[C@@H](N)CCCNC(N)=O)C(=O)N[C@@H](CCC(N)=O)C(=O)N[C@H](C(=O)O)C(C)C (H-[Cit][Cit]EAEDLQV-OH; N-terminus and C-terminus assumed)

IC50 [2]: 7700 nM
Compound: TVASRLGPV [reference compound]

IC50 [3]: > 40000 nM
Compound: GERGYFYTPK

IC50 [2]: 30300 nM
Compound: LALWGPDPAA [reference compound]

IC50 [6]: > 40000 nM
Compound: TRREAEDLQ

IC50 [2]: 149 nM
Compound: VLFGLGFAI [reference compound]

IC50 [3]: > 40000 nM
Compound: CC[C@H](C)[C@H](NC(=O)CNC(=O)[C@H](CCCNC(N)=O)NC(=O)[C@H](CCCCN)NC(=O)[C@H](CCC(N)=O)NC(=O)[C@H](CC(C)C)NC(=O)[C@H](CO)NC(=O)CN)C(=O)N[C@H](C(=O)O)C(C)C (H-GSLQK[Cit]GIV-OH; N-terminus and C-terminus assumed)

IC50 [6]: > 40000 nM
Compound: FFYTPKTRRE

IC50 [1]: 11400 nM
Compound: CC(C)C[C@H](NC(=O)[C@@H](N)Cc1ccc(O)cc1)C(=O)N[C@H](C(=O)N[C@@H](CS)C(=O)NCC(=O)N[C@@H](CCC(=O)O)C(=O)N[C@@H](CCCNC(N)=O)C(=O)NCC(=O)N[C@@H](Cc1ccccc1)C(=O)O)C(C)C (H-YLVCGE[Cit]GF-OH)

IC50 [6]: > 40000 nM
Compound: VNQHLCGSH

IC50 [3]: > 40000 nM
Compound: C[C@@H](O)[C@H](NC(=O)[C@H](CCCCN)NC(=O)[C@@H]1CCCN1C(=O)[C@@H](NC(=O)[C@H](Cc1ccc(O)cc1)NC(=O)[C@H](Cc1ccccc1)NC(=O)[C@@H](N)Cc1ccccc1)[C@@H](C)O)C(=O)N[C@@H](CCCNC(N)=O)C(=O)N[C@@H](CCCNC(N)=O)C(=O)O (H-FFYTPKT[Cit][Cit]-OH; N-terminus and C-terminus assumed)

IC50 [3]: > 40000 nM
Compound: CC(C)C[C@H](N)C(=O)N[C@H](C(=O)N[C@@H](CS)C(=O)NCC(=O)N[C@@H](CCC(=O)O)C(=O)N[C@@H](CCCNC(N)=O)C(=O)NCC(=O)N[C@@H](Cc1ccccc1)C(=O)N[C@@H](Cc1ccccc1)C(=O)O)C(C)C (H-LVCGE[Cit]GFF-OH; N-terminus and C-terminus assumed)

IC50 [3]: > 40000 nM
Compound: LYLVCGERGY

IC50 [1]: 98 nM
Compound: CSCC[C@H](N)C(=O)N[C@@H](CCCNC(N)=O)C(=O)N[C@@H](CC(C)C)C(=O)N[C@@H](CC(C)C)C(=O)N1CCC[C@H]1C(=O)N[C@@H](CC(C)C)C(=O)N[C@@H](CC(C)C)C(=O)N[C@@H](C)C(=O)N[C@@H](CC(C)C)C(=O)N[C@@H](CC(C)C)C(=O)O (H-M[Cit]LLPLLALL-OH)

IC50 [6]: > 40000 nM | IC50 (unmodified (wild type) insulin-derived peptide, radiolabeled ligand competition, purified MHC, two-day incubation, three or more independent experiments, read-out: A*02:01 binding, WT): > 40000 nM
Compound: C[C@@H](O)[C@H](NC(=O)[C@H](CCCCN)NC(=O)[C@@H]1CCCN1C(=O)[C@@H](NC(=O)[C@H](Cc1ccc(O)cc1)NC(=O)[C@H](Cc1ccccc1)NC(=O)[C@H](Cc1ccccc1)NC(=O)CNC(=O)[C@@H](N)CCCNC(=N)N)[C@@H](C)O)C(=O)O

IC50 [2]: 1370 nM
Compound: KLQVFLIVL [reference compound]

IC50 [4]: 13200 nM
Compound: FVNQHLCGSH
